For experiment [1], the system named is NIH 3T3 fibroblasts. Description: Cell growth potentiation test (potentiation of mitogenic activity of fetal calf serum, EZ4U cellular proliferation assay). The format is cell-based. The conditions noted are these: for Cell growth potentiation relative to minoxidil at 100 μM (%): 0% = base concentration of FCS alone (5% or 3%), 100% = minoxidil at 100 μM; for Cell growth relative to FCS alone (%): 100% = same growth as base concentration of FCS alone. The text has this:
To test for activity in mammalian hair growth stimulation, an in vitro test of cell growth potentiation has been applied to a number of the compounds of the invention and prior art compounds 11901 and 11903. The test involves an assay of the call growth due to potentiation of the mitogenic activity of fetal calf serum (FCS). See WO97/14036. Details of materials, methods and results are as follows.
Tissue culture plastics were obtained from Beckton Dickinson (Cowley, Oxford, UK). NIH 3T3 fibroblasts were obtained from the European collection of animal cell cultures (Salisbury, Wilts, UK). Dulbecco's modified Eagle's medium (DMEM) was obtained from Flow Laboratories (Rickmansworth, Herts, UK). L-Glutamine and fetal calf serum were from Gibco (Paisley, UK).
The EZ4U cell proliferation assay kits were obtained from Cozart Bioscience Ltd (Abingdon, Oxon, UK). All other chemicals were obtained from Sigma Chemical Company Ltd. (Poole, Dorset, UK), and of the highest grade available.
NIH 3T3 fibroblasts were maintained in Dulbecco's modified Eagle's medium supplemented with 10% FCS and 2 mM L-glutamine in 150 cm^2 tissue culture flasks at 37° C. in an atmosphere of 5% CO2/95% air. Antibiotics were omitted. Medium was changed every 3 days, and passages were carried out twice a week before cells reached confluence. Prior to experiments, cells were passaged and plated out to give 10^4 cell/ml in 96-well multi-well plates. Cells were incubated for 24 hours with Dulbecco's modified Eagle's medium supplemented with 10% FCS to aid attachment. This was then removed and the experimental medium added.
Compounds were prepared following a general preparation protocol. This protocol consisted of taking a mass of compound, dissolving in the recommended solvent (40 μl) such that in the final preparation the concentrations of compound and solvent would be 100 μM and 0.1 respectively. In theory this volume was 40 μl, however for accuracy a mass larger than the required mass was dispensed and the solvent volume varied accordingly; only 40 μl of this solution was required for the next stage. The 40 μl volume was then added to a volume of FCS (1.2 ml), such that in the final preparation the concentration of FCS would be 3%. This solution was then added to DMEM containing L-glutamine (2 mM) (18.76 ml). The resulting solution of 20 ml volume was filter stabilised. This solution is now 200 μM in compound, 6% FCS and 0.2% solvent, and so was diluted 1:1 with the DMEM containing L-glutamine. This 100 μM stock could then be diluted serially to provide lower concentrations of the compound of interest. Solutions containing different ratios of compound and FCS were obtained in a similar manner.
This was performed, following the manufacturer's instructions, using an EZ4U assay kit, which is based upon the conversion of tetrazolium salt to coloured formazam derivatives by mitochondria (Hansen et al, 1989). Plates were read on a plate reader (Anthos Labtec HT2), using a measurement filter (450 nm), with a reference filter (620 nm) with a low Shaking density for 5 seconds prior to measurement. Control experiments were made against counting cells in a haemocytometer (sanders et al, 1996). There is some variance of results between different batches of FCS employed.
A series of cell growth potentiation/inhibition tests has been carried out in accordance with the procedure described above on some of the compounds of the invention, on compounds 11901 and 11903 and on minoxidil (a compound well known for its hair growth stimulation effects). Because of some variability of results with different batches of FCS, each compound was tested in a solution of a base concentration of FCS and was compared with minoxidil in a solution of the same base concentration of FCS and with a solution having the same base concentration of FCS alone (no additive), using the same FCS batch in order to provide standardised comparisons for that compound. […]

In experiment [2] the test system is K+-stimulated isolated rat aorta. Description: K+-stimulated isolated rat aorta test. The conditions noted are these: relaxation of contraction triggered by 25 mM KCl in rat aorta rings; asterisk (*) = low activity, only approximate value. On the procedure:
K^+-stimulated Isolated Rat Aorta Test
Male rats weighing about 300 g are killed painlessly by a blow to the neck and quickly exsanguinated. The thoracic cavity is opened and the aorta is carefully resectioned. It is placed in a Petri dish filled with Krebs solution, and surrounding connective and fatty tissue is removed. Two rings are prepared. The rings are each suspended in an organ bath, They are attached at the bottom to a hook and at the top to an electrical force transducer which is able to measure precisely contractions of 0-10 grams in strength. The measured contractions are amplified by means of a bridge amplifier and recorded with a thermal plotter.
The organ baths are filled with Krebs solution at 37° C. through which an O2/CO2 mixture is bubbled thoroughly and which has the following composition (mmol/1): NaCl 118.4; KCl 4.7; CaCl2 2.5; KH2PO4 1.2; MgSO4 1.2; NaHCO3 25; glucose 11.
The rings are stretched with a basic tone of about 0.5 g, After an equilibration time of about 30 minutes, the rings are caused to undergo contraction by depolarization (addition of 25 mM KCl to the organ bath). The contractions of the rings of aorta, triggered by the depolarization, quickly reach a plateau, As soon as this plateau is reached (“100% value”), the test substance is added to the organ bath, initially at low concentrations, for example 10^−8M, and then in increasing doses at regular intervals, until the contractions reduce or the final concentration of 10^−4M is reached. Each test substance is tested 2-4 times in this way.
For purposes of evaluation, the height of the contractions registered on the plotter paper is measured for each experiment after the action of each test concentration added. The IC50 value can be calculated in this way in relation to the original height of contractions before the addition of substance (100%).

pIC50: −log10 of the molar value.

Consider “5,5-Dimethyl-7-(2-oxo-1-pyrrolidinyl)-2-(thiazolin-2-yl)-5-thieno[3,2-b]pyran [Compound 50133]”, for which the “Cell growth potentiation relative to minoxidil at 100 μM (%)” value in experiment [1] (Compound at 10 μM) was found to be 54%. Also, the “Cell growth relative to FCS alone (%)” value in experiment [1] (Compound at 100 μM) was found to be 60%.
In the case of “6′,7′-Dihydro-5′,5′-dimethylspiro[1,3-dithialane-2,7′-5H-thieno[3,2-b]pyran]-2′-carbonitrile [Compound 50066]”, the “Cell growth potentiation relative to minoxidil at 100 μM (%)” value is recorded as 355% in experiment [1] (Compound at 10 μM) and 144% in experiment [1] (Compound at 100 μM). In experiment [2], the pIC50 (as a rule, the negative decadic logarithm of the IC50, by convention in mol/L) is around 5.00.
Regarding “6′,7′-Dihyrdro-5′,5′-dimethylspiro[1,3-dithiolane-2,7′-5H-thieno[3,2-b]pyran] [Compound 50063]”, the “Cell growth relative to FCS alone (%)” value was 55% in experiment [1] (Compound at 10 μM) and 93% in experiment [1] (Compound at 100 μM). In addition, the pIC50 in experiment [2] is around 5.00.
In experiment [2], `CC1=C(C)C[C@]2(CC(C)(C)Oc3ccsc32)[S@+]([O-])C1` (relative stereo) [Compound 50054, rel-(1′R, 2′R)-3′,6,6′,7-Tetrahydro-4′,5,5′,5-tetramethylspiro[5H-thieno[3,2-b]pyran-7,2′-2H-thiopyran]-1′-oxide] showed a pIC50 of around 5.52.
`CC1=C(C)C[C@@]2(CC(C)(C)Oc3ccsc32)[S@+]([O-])C1` (relative stereo) [Compound 50055, rel-(1′R, 2′S)-3′,6,6′,7-Tetrahydro-4′,5,5′,5-tetramethylspiro[5N-thieno[3,2-b]pyran-7,2′-2H-thiopyran]-1′-oxide] showed a pIC50 in experiment [2] of around 5.00.
Turning to `CC1(C)C[C@@]2(SCC[S@+]2[O-])c2sccc2O1` (relative stereo) [Compound 50064, rel-(1S, 2S)-6′,7′-Dihydro-5′,5′-dimethylspiro[1,3-dithiolane-2,7′-5H-thieno[3,2-b]pyran]-1-oxide], the pIC50 in experiment [2] was around 5.00.
Compound `CC1(C)C[C@]2(SCC[S@+]2[O-])c2sccc2O1` (relative stereo) [Compound 50065, rel-(1S, 2R)-6′,7′-Dihydro-5′,5′-dimethylspiro[1,3-dithiolane-2,7′-5H-thieno[3,2-b]pyran]-1-oxide] had a pIC50 in experiment [2] of around 4.52.
The same measure, in the same setting: next, `CC1(C)C[C@]2(SCC[S@+]2[O-])c2sc(C#N)cc2O1` (relative stereo) [Compound 50068, rel-(1S, 2R)-6′,7′-Dihydro-5′,5′-dimethylspiro[1,3-dithiolane-2,7′-5H-thieno[3,2-b]pyran]-2′-carbonitrile-1-oxide]: around 4.52.
As to `CC1(C)C[C@]2(SCCC[S@+]2[O-])c2sccc2O1` (relative stereo) [Compound 50070, rel-(1S, 2R)-6′,7′-Dihydro-5′,5′-dimethylspiro[1,3-dithiane-2,7′-5H-thieno[3,2-b]pyran]-1-oxide], the “Cell growth relative to FCS alone (%)” value in experiment [1] (Compound at 10 μM) is 81%; in experiment [1] (Compound at 100 μM), 78%.
The compound `CC1=C(C)C[C@]2(CC(C)(C)Oc3cc(C#N)sc32)[S@+]([O-])C1` (relative stereo) [Compound 50096, rel-(1′R, 2′R)-3′,6,6′,7-Tetrahydro-4′,5,5′,5-tetramethyl-1′-oxospiro[5H-thieno[3,2-b]pyran-7,2′-2H-thiopyran-2-carbonitrile] showed a pIC50 in experiment [2] of 5.64.
With `CC1=C(C)C[C@]2(CC(C)(C)Oc3cc(S(=O)(=O)c4ccccc4)sc32)[S@+]([O-])C1` (relative stereo) [Compound 50126, rel-(1′R,2′R)-3′,6,6′,7-Tetrahydro-4′,5,5′,5-tetramethyl-2-(phenylsulphonyl)spiro[5H-thieno[3,2-b]pyran-7,2′-2H-thiopyran]1′-oxide], in experiment [2], the pIC50 was 5.20.
For the compound `CC1=C(C)C[C@@]2(CC(C)(C)Oc3cc(S(=O)(=O)c4ccccc4)sc32)[S@+]([O-])C1` (relative stereo) [Compound 50127, rel-(1′R,2′S)-3′,6,6′,7-Tetrahydro-4′,5,5′,5-tetramethyl-2-(phenylsulphonyl)spiro[5H-thieno[3,2-b]pyran-7,2′-2H-thiopyran]1′-oxide], the pIC50 in experiment [2] is 5.13.
For the compound `CC1(C)Oc2cc(C(F)(F)C(F)(F)F)sc2[C@@H](N2CCCCC2=O)[C@@H]1O` (relative stereo) [Compound 50174, rel-(6S, 78S)-2-(Pentafluoroethyl)-6,7-dihydro-6-hydroxy-5,5-dimethyl-7-(2-oxo-1-piperidinyl)-5H-thieno[3,2-b]pyran], the results for the “Cell growth potentiation relative to minoxidil at 100 μM (%)” value in experiment [1] (Compound at 10 μM) and in experiment [1] (Compound at 100 μM) were 244% and 133%, respectively.
For `CC1(C)C=C(N2CCCC2=O)c2sc(C#N)cc2O1` [Compound 50040, 5,5-Dimethyl-7-(2-oxo-1-pyrrolidinyl)-5H-thieno[3,2-b]pyran-2-carbonitrile], in that order: 24% and 48%.
On to `CC1=C(C)C(C2=CC(C)(C)Oc3cc(C#N)sc32)[S+]([O-])C1` (stereo not shown) [Compound 50106, 5,5-Dimethyl-(2,5-dihydro-3,4-dimethyl-1-oxy-thien-2-yl)-5H-thieno[3,2-b]pyran-2-carbonitrile], for which, in experiment [1] (Compound at 10 μM), the “Cell growth relative to FCS alone (%)” value came out at 80%. Further, the “Cell growth potentiation relative to minoxidil at 100 μM (%)” value in experiment [1] (Compound at 100 μM) came out at 60%.
In experiment [2], `CC1(C)Oc2cc(S(=O)(=O)c3ccccc3)sc2[C@@H](N2CCCC2=O)[C@@H]1O` [Compound 50108, (?)-(6S, 7S)-6,7-Dihydro-6-hydroxy-5,5-dimethyl-7-(2-oxo-1-pyrrolidinyl)-2-(phenylsulphonyl)-5H-thieno[3,2-b]pyran] gave a pIC50 of 7.74.
Take `CC1=C(C)CS(=O)(=O)C2(C1)CC(C)(C)Oc1ccsc12` (stereo not shown) [Compound 50110, 3′,6,6′,7-Tetrahydro-4′,5,5,5′-tetramethyl-spiro[5H-thieno[3,2-b]pyran-7,2′-2H-thiopyran]-1′,1′-dioxide]: the pIC50 in experiment [2] was 5.00.
Turning to `CC1(C)CC2(CC3(C)OC3(C)CS2(=O)=O)c2sccc2O1` (stereo not shown) [Compound 50111, 4′,5′-Epoxy-3′,6,6′,7-tetrahydro-4′,5,5,5′-tetramethyl-spiro[5H-thieno[3,2-b]pyran-7,2′-2H-thiopyran]-1′,1′-dioxide], the pIC50 in experiment [2] was 5.52.
Consider `Nc1cc(N2CCCCC2)nc(N)[n+]1[O-]` [minoxidil, reference compound], for which the “concentration of greatest potentiation of mitogenic activity of FCS” value in experiment [1] (5% FCS, FIG. 2, 100% growth = value for 10% FCS) stood at 100 µM.

For the origin of these results see patent US6342517B1, “Potassium channel activators and their use” (Cambridge Bioclinical Limited, priority 1998, dated 2002).
